target: T1, human OX2R (Homo sapiens, UniProt O43614); assay: IPOne (IP-1) orexin receptor agonist assay in CHO cells expressing human OX2R; type: cell-based; settings: CHO, percent of mean max effect of a reference compound at 1 uM with 100% activity vs Orexin A, human OX2R
T1 construct: expressed in transfected cells; host or cells: CHO (Chinese hamster ovary) cells, grown under G418 selection
T1 sequence (O43614 1-444): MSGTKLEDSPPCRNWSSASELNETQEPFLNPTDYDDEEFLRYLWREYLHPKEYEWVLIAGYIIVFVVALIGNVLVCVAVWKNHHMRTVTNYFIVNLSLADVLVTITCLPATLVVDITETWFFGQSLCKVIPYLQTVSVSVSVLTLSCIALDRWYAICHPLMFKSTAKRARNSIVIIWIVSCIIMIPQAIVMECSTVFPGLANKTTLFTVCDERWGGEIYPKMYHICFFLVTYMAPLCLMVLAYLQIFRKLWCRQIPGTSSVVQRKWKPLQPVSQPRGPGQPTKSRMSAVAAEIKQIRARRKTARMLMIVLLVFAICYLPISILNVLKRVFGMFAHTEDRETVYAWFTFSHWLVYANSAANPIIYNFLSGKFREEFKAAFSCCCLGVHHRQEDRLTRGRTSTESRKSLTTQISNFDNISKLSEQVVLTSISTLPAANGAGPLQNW
Summary of the method: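 CHO cells with human OX2R treated 2 h at 37 °C with 10-point ½-log compound dilutions in stimulation buffer; IP-1 accumulation read by HTRF (665/620 nm) after 60 min detection. EC50 from four-parameter fit; % effect versus a 1 uM reference agonist.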

Emax [%]	Structure (SMILES)
94.6	COC(=O)N1CC[C@H](NS(C)(=O)=O)[C@@H]1COC1CCC2(c3ncccn3)CC2C1 (mixture of isomers) [Example 21, methyl (2R,3S)-3-(methylsulfonamido)-2-(((6-(pyrimidin-2-yl)bicyclo[4.1.0]heptan-3-yl)oxy)methyl)pyrrolidine-1-carboxylate]

same assay, conditions: IPOne assay, CHO cells expressing human OX2R, 2 hours incubation; read-out: hoX2R_IP IC50

Structure (SMILES)	IC50 [nM]
COC(=O)N1[C@H](C)C[C@H](NS(=O)(=O)N(C)C)[C@@H]1COC1CCC2(c3cnccn3)CC2C1 (single isomer, unassigned) [Example 11]	146
COC(=O)N1[C@@H]2COC[C@@H]2C(NS(C)(=O)=O)[C@@H]1COC1CCC2(c3ncc(F)cn3)CC2C1 (mixture of isomers) [Example 134, methyl (2R,3aS,6aS)-2-(((6-(5-fluoropyrimidin-2-yl)bicyclo[4.1.0]heptan-3-yl)oxy)methyl)-3-(methylsulfonamido)hexahydro-1H-furo[3,4-b]pyrrole-1-carboxylate]	83.7
CC(C)OC(=O)N1CCC[C@H](NS(=O)(=O)C2CC2)[C@@H]1COC1CCC2(c3ncc(F)cn3)CC2C1 (stereo partly drawn) [Example 122, isopropyl (2R,3S)-3-(cyclopropanesulfonamido)-2-(((6-(5-fluoropyrimidin-2-yl)bicyclo[4.1.0]heptan-3-yl)oxy)methyl)piperidine-1-carboxylate]	6.1
COC(=O)N1[C@H](C(F)F)C[C@H](NS(=O)(=O)C(C)C)[C@@H]1COC1CCC2(c3ncc(F)cn3)CC2C1 (stereo partly drawn) [Example 120, methyl (2R,3S,5S)-5-(difluoromethyl)-2-(((6-(5-fluoropyrimidin-2-yl)bicyclo[4.1.0]heptan-3-yl)oxy)methyl)-3-((1-methylethyl)sulfonamido)pyrrolidine-1-carboxylate]	2.4
COC(=O)N1[C@H](C)C[C@H](NS(=O)(=O)C2COC2)[C@@H]1CO[C@H]1CC[C@@]2(c3ncc(F)cn3)C[C@H]2C1 [Example 40, methyl (2R,3S,5R)-2-((((1S,3S,6R)-6-(5-fluoropyrimidin-2-yl)bicyclo[4.1.0]heptan-3-yl)oxy)methyl)-5-methyl-3-(oxetane-3-sulfonamido)pyrrolidine-1-carboxylate]	4.4
COC(=O)N1CC[C@H](NS(C)(=O)=O)[C@@H]1COC1CCC2(c3ncccn3)CC2C1 (mixture of isomers) [Example 21, methyl (2R,3S)-3-(methylsulfonamido)-2-(((6-(pyrimidin-2-yl)bicyclo[4.1.0]heptan-3-yl)oxy)methyl)pyrrolidine-1-carboxylate]	1620
COC(=O)N1[C@H](C)C[C@H](NS(=O)(=O)N(C)C)[C@@H]1COC1CCC2(c3cnccn3)CC2C1 (single isomer, unassigned) [Example 14]	161
C[C@@H]1C[C@H](NS(C)(=O)=O)[C@H](CO[C@H]2CC[C@@]3(c4ncc(F)cn4)C[C@H]3C2)N1C(=O)OCC1(C)CC1(F)F (stereo partly drawn) [Example 57, (2,2-difluoro-1-methylcyclopropyl)methyl (2R,3S,5R)-2-((((1S,3S,6R)-6-(5-fluoropyrimidin-2-yl)bicyclo[4.1.0]heptan-3-yl)oxy)methyl)-5-methyl-3-(methylsulfonamido)pyrrolidine-1-carboxylate]	1.4
COC(=O)N1[C@H](C)C[C@H](NS(=O)(=O)N(C)C)[C@@H]1COC1CCC2(c3cnccn3)CC2C1 (stereo partly drawn) [Example 10, methyl (2R,3S,5R)-3-((N,N-dimethylsulfamoyl)amino)-5-methyl-2-(((6-(pyrazin-2-yl)bicyclo[4.1.0]heptan-3-yl)oxy)methyl)pyrrolidine-1-carboxylate]	323
COC(=O)N1[C@@H]2CCC[C@@H]2[C@H](NS(=O)(=O)CF)[C@@H]1COC1CCC2(c3ncc(F)cn3)CC2C1 (stereo partly drawn) [Example 130, methyl (2R,3S,3aS,6aR)-3-((fluoromethyl)sulfonamido)-2-(((6-(5-fluoropyrimidin-2-yl)bicyclo[4.1.0]heptan-3-yl)oxy)methyl)hexahydrocyclopenta[b]pyrrole-1(2H)-carboxylate]	1.4

The remaining lines, values ahead:

IC50 [nM]	Structure (SMILES)
278	COC(=O)N1[C@H](C)C[C@H](NS(=O)(=O)N(C)C)[C@@H]1COC1CCC2(c3ccc(C#N)cc3)CC2C1 (stereo partly drawn) [Example 5, methyl (2R,3S,5R)-2-(((6-(4-cyanophenyl)bicyclo[4.1.0]heptan-3-yl)oxy)methyl)-3-((N,N-dimethylsulfamoyl)amino)-5-methylpyrrolidine-1-carboxylate]
187	COC(=O)N1[C@H](C)C[C@H](NS(=O)(=O)N(C)C)[C@@H]1COC1CCC2(c3cccc(F)c3)CC2C1 (mixture of isomers) [Example 3, methyl (2R,3S,5R)-3-((N,N-dimethylsulfamoyl)amino)-2-(((6-(3-fluorophenyl)bicyclo[4.1.0]heptan-3-yl)oxy)methyl)-5-methylpyrrolidine-1-carboxylate]
5.4	CCCS(=O)(=O)N[C@H]1C[C@@H](C)N(C(=O)OC)[C@H]1CO[C@H]1CC[C@@]2(c3ncc(F)cn3)C[C@H]2C1 [Example 33, methyl (2R,3S,5R)-2-((((1S,3S,6R)-6-(5-fluoropyrimidin-2-yl)bicyclo[4.1.0]heptan-3-yl)oxy)methyl)-5-methyl-3-(propylsulfonamido)pyrrolidine-1-carboxylate]
2.1	COC(=O)N1[C@H](C)C[C@H](NS(=O)(=O)CCl)[C@@H]1CO[C@H]1CC[C@@]2(c3ncc(F)cn3)C[C@H]2C1 [Example 37, methyl (2R,3S,5R)-3-((chloromethyl)sulfonamido)-2-((((1S,3S,6R)-6-(5-fluoropyrimidin-2-yl)bicyclo[4.1.0]heptan-3-yl)oxy)methyl)-5-methylpyrrolidine-1-carboxylate]
1.3	C[C@@H]1C[C@H](NS(C)(=O)=O)[C@H](CO[C@H]2CC[C@@]3(c4ncc(F)cn4)C[C@H]3C2)N1C(=O)OC[C@H]1C[C@H]1F [Example 51, ((1R,2R)-2-fluorocyclopropyl)methyl (2R,3S,5R)-2-((((1S,3S,6R)-6-(5-fluoropyrimidin-2-yl)bicyclo[4.1.0]heptan-3-yl)oxy)methyl)-5-methyl-3-(methylsulfonamido)pyrrolidine-1-carboxylate]
50.7	COC(=O)N1[C@H](C)C[C@H](NS(C)(=O)=O)[C@@H]1CO[C@H]1CC[C@@]2(c3nccs3)C[C@H]2C1 (single isomer, unassigned) [Example 146]
1.4	COC(=O)N1[C@H](C)C[C@H](NS(=O)(=O)C(F)F)[C@@H]1CO[C@H]1CC[C@@]2(c3ncc(F)cn3)C[C@H]2C1 [Example 48, methyl (2R,3S,5R)-3-((difluoromethyl)sulfonamido)-2-((((1S,3S,6R)-6-(5-fluoropyrimidin-2-yl)bicyclo[4.1.0]heptan-3-yl)oxy)methyl)-5-methylpyrrolidine-1-carboxylate]
8	CC(C)OC(=O)N1[C@H](C)C[C@H](NS(C)(=O)=O)[C@@H]1CO[C@@H]1CC[C@]2(c3ncc(F)cn3)C[C@@H]2C1 (single isomer, unassigned) [Example 29]
832	COC(=O)N1[C@H](C)C[C@H](NS(C)(=O)=O)[C@@H]1COC1CCC2(c3nc4c(F)ccc(F)c4s3)CC2C1 (stereo partly drawn) [Example 71, methyl (2R,3S,5R)-2-(((6-(4,7-difluorobenzo[d]thiazol-2-yl)bicyclo[4.1.0]heptan-3-yl)oxy)methyl)-5-methyl-3-(methylsulfonamido)pyrrolidine-1-carboxylate]
17.4	COC(=O)N1[C@H](C)C[C@H](NS(=O)(=O)C(F)(F)F)[C@@H]1CO[C@@H]1CC[C@]2(c3ncc(F)cn3)C[C@@H]2C1 [Example 44, methyl (2R,3S,5R)-2-((((1R,3R,6S)-6-(5-fluoropyrimidin-2-yl)bicyclo[4.1.0]heptan-3-yl)oxy)methyl)-5-methyl-3-((trifluoromethyl)sulfonamido)pyrrolidine-1-carboxylate]

Reference: patent publication US20230365533A1, “BICYCLOHEPTANE PYRROLIDINE OREXIN RECEPTOR AGONISTS” (MERCK SHARP & DOHME CORP., priority 2021, published 2023)
